Values belong to the compound of their own block, whether it stands above or below them.
Tests used:
D(1A) dopamine receptor [1] = target: T1, D(1A) dopamine receptor (Homo sapiens, UniProt P21728); experiment: Binding affinity to displace [3H]-SCH- 23390 against Dopamine receptor D1
D(1A) dopamine receptor [2] = target: D(1A) dopamine receptor (Rattus norvegicus, UniProt P18901); experiment: Binding affinity against Dopamine receptor D1 in rat radioligand
Adenylate cyclase type 5 [3] = target: T2, Adenylate cyclase type 5 (Homo sapiens, UniProt O95622); experiment: Effective dose required to stimulate Adenylate cyclase
Target sequence in this assay (O95622 whole entry, looked up): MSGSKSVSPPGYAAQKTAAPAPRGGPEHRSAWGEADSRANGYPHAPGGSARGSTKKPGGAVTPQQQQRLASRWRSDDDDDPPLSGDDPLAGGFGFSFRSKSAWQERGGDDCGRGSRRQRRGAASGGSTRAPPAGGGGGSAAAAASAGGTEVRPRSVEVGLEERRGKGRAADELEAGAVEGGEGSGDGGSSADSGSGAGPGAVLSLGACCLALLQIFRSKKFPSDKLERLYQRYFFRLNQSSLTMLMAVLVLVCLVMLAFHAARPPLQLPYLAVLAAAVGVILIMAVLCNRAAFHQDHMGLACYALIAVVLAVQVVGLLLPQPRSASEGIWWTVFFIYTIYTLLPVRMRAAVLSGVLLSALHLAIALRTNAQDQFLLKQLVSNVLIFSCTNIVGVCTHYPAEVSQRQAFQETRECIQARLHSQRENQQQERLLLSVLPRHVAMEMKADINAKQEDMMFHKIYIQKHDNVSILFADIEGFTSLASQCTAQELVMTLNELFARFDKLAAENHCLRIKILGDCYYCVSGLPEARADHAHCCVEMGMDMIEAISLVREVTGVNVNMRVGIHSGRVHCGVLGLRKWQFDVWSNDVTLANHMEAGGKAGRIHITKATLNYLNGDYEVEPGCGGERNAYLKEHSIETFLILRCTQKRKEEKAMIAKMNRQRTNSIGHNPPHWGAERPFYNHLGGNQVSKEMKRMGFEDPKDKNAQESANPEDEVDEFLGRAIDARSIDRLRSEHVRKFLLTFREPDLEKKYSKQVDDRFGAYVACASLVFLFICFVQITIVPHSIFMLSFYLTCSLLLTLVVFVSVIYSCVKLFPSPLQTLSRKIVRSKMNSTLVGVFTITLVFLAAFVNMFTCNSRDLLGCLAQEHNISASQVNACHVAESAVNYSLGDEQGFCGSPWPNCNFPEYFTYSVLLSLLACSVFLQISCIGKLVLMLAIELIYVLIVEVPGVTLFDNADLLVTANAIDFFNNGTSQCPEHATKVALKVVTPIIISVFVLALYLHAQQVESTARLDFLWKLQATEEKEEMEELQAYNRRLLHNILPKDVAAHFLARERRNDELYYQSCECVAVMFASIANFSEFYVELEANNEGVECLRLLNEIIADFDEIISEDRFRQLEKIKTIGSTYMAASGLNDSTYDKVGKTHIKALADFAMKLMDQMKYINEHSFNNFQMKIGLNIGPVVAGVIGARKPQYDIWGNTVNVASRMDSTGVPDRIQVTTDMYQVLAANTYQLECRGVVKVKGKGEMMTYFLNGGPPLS

Adenylate cyclase type 5 [4] = target: T2, Adenylate cyclase type 5; experiment: Effective concentration required to stimulate Adenylate cyclase; Inactive
Target sequence in this assay (O95622 whole entry): as the sequence (O95622 whole entry, looked up) above

D(1A) dopamine receptor [5] = target: T1, D(1A) dopamine receptor; experiment: Binding affinity to displace [3H]- SCH 23390 against Dopamine receptor D1
Adenylate cyclase type 5 [6] = target: T2, Adenylate cyclase type 5; experiment: Effective concentration required to stimulate Adenylate cyclase
Target sequence in this assay (O95622 whole entry, looked up): as above

T1 sequence (P21728 whole entry): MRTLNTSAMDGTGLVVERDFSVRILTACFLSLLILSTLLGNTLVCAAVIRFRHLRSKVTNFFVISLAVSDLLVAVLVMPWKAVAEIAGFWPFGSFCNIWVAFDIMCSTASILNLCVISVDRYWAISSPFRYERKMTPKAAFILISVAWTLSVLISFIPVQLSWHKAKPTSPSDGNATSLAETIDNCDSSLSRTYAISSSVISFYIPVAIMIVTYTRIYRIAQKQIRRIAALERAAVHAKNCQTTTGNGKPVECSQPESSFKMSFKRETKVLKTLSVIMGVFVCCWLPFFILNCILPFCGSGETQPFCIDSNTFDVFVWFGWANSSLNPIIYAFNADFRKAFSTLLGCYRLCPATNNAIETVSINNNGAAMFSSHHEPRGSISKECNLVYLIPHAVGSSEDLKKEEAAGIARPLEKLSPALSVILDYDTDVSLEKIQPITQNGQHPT
Sequence of D(1A) dopamine receptor (Rattus norvegicus, UniProt P18901) (P18901 whole entry): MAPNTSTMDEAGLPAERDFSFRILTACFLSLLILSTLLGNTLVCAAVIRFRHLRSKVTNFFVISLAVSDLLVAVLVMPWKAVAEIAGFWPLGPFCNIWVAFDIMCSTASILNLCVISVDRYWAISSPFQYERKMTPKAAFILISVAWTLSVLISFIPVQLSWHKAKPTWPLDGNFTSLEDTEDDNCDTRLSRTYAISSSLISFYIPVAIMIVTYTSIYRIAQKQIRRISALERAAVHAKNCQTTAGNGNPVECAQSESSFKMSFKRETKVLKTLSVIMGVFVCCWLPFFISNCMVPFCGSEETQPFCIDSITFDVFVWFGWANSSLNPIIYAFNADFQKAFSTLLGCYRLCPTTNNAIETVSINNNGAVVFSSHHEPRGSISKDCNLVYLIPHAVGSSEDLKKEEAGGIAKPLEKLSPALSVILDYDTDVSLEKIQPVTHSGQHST

Ki (D(1A) dopamine receptor [1]): 6 nM
Structure (SMILES): CN1CCc2cc(Cl)c(O)cc2[C@@H](c2cccc3ccoc23)C1

Ki (D(1A) dopamine receptor [2]): 24 nM | ED50 (Adenylate cyclase type 5 [3]): 430 nM
Structure (SMILES): Oc1cc2c3c(c1O)CC[C@@H]3CNC[C@@H]2c1ccccc1

EC50 (Adenylate cyclase type 5 [4]): Not Active
Structure (SMILES): Cc1c(O)c(O)cc2c1[C@@H](c1ccccc1)CNCC2

Ki (D(1A) dopamine receptor [5]): 0.4 nM
Structure (SMILES): Cc1cccc([C@H]2CN(C)CCc3cc(Cl)c(O)cc32)c1

Ki (D(1A) dopamine receptor [5]): 0.8 nM
Structure (SMILES): Cc1ccccc1[C@H]1CN(C)CCc2cc(Cl)c(O)cc21

ED50 (Adenylate cyclase type 5 [3]): 63 nM
Structure (SMILES): Oc1cc2c(cc1O)[C@@H](c1ccccc1)CNCC2

Response (Adenylate cyclase type 5 [6]): 71%
Structure (SMILES): Cc1cccc([C@H]2CNCCc3cc(O)c(O)cc32)c1

EC50 (Adenylate cyclase type 5 [4]): Not Active
Structure (SMILES): Cc1ccccc1[C@H]1CNCCc2cc(O)c(O)cc21

Ki (D(1A) dopamine receptor [2]): 1220 nM | Control (Adenylate cyclase type 5 [3]): 20%
Structure (SMILES): Oc1cc2c3c(c1O)CC[C@H]3CNC[C@@H]2c1ccccc1

Ki (D(1A) dopamine receptor [5]): 1.6 nM
Structure (SMILES): Cc1ccc([C@H]2CN(C)CCc3cc(Cl)c(O)cc32)cc1

Structure (SMILES): CN1CCc2cc(Cl)c(O)cc2[C@H]2c3ccccc3C[C@@H]21
Ki (D(1A) dopamine receptor [5]): 7 nM

— ChEMBL document CHEMBL1125095, “Conformational analysis and structure-activity relationships of selective dopamine D-1 receptor agonists and antagonists of the benzazepine series” (J Med Chem, 1990)
